Each compound was assayed against GOT1 (Homo sapiens, UniProt P17174) (assay: MDH coupled GOT1 enzymatic assay). Settings: MDH coupled GOT1 enzymatic assay.
GOT1, sequence (P17174 whole entry): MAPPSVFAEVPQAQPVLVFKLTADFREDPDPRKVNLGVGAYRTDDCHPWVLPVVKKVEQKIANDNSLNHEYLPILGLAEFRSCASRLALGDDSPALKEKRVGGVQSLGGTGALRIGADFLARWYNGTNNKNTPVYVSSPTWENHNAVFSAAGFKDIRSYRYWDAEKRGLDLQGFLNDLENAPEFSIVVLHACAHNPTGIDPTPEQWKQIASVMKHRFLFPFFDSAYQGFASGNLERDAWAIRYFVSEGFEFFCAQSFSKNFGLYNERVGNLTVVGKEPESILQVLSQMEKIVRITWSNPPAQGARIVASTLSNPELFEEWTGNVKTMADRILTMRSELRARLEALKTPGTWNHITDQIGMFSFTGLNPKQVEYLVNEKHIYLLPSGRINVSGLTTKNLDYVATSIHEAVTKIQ
Format: biochemical
O=C(Nc1ccccc1)N1CCN(c2cccc3[nH]ncc23)CC1 [Compound 1j] was tested, and the “GOT1 inhibition activity (in words)” value was “lack of observed activity”. O=C(NCCc1c[nH]c2ccccc12)Nc1ccccc1 [Compound 3a] was tested, and the “GOT1 inhibition activity (in words)” value was “no significant activity”. With O=C(Nc1ccccc1)N1CCN(c2cccc3ncccc23)CC1 [Compound 1k] the “GOT1 inhibition activity (in words)” value was “lack of observed activity”.

Same assay, conditions: relative to 1a; GOT1 inhibition
With O=C(Nc1cccc(C(F)(F)F)c1)N1CCN(c2cccc3[nH]ccc23)CC1 [Compound 2g] the enhancement in potency was ~ 10 fold. With O=C(Nc1ccc(C(F)(F)F)cc1)N1CCN(c2cccc3[nH]ccc23)CC1 [Compound 2d] the enhancement in potency was ~ 10 fold. For O=C(Nc1ccc(Cl)cc1)N1CCN(c2cccc3[nH]ccc23)CC1 [Compound 2c], the enhancement in potency was ~ 10 fold.

Source: article PMC6119644 (Bioorganic & medicinal chemistry letters, 2018)
